By Ki is commonly meant the dissociation constant of the complex between target and ligand, obtained from inhibition or displacement. Lower therefore signals tighter binding.

Data set [1] can be described thus: In vivo test of acute T26A toxicity. Set-up: species or system mice. The following applies: 100 uL intraperitoneal. As for the experimental part: All mice were male. They received one intraperitoneal injection. The injected volume was 100 uL to all of them, 14 hours after injection, they were all alive, and moved and acted normally.
The nature of data set [2]: Chronic oral administration in drinking water: blood PGE2, urine PGE2, bleeding time. In kind it is in vivo, mice. The following applies: 2 mM in drinking water, 16 days. How it is done: Regular water, vehicle (2% DMSO and 2% cremophor) in drinking water, or 2 mM T26A in drinking water was administered to 17 week old mice for 16 days. At the end of the experiment, we withdrew blood by cardiac puncture. PGE2 in blood samples was measured by using PGE2 EIA kit from Caymanchem.
The mice described above pertaining to FIG. 17 were placed in metabolic cages. Six days after they adjusted to the caged condition (on regular diet and water) regular drinking water, vehicle (2% DMSO and 2% cremophor) in drinking water, or 2 mM T26A in drinking water was administered for 16 days. Urine was collected daily. PGE2 in urine samples was measured using PGE2 EIA kit from Caymanchem. […] This is also consistent with the FIG. 8 model. Inhibiting PGE2 transport into the cell reduces its intracellular degradation such that more is secreted without intracellular degradation.
At the end of the experiment shown in FIGS. 17-18, bleeding time was measured using the tail cut method. About 1 cm tails of restrained mice were cut off; the diameter of the cut was kept the same for all mice. The emerging blood was blotted every 15 seconds without touching the wound. Bleeding time was measured as the point at which bleeding had stopped for 1 minute. Results are shown graphically in FIG. 19. […] It is believed that the blockade of endothelial PCT allows intravascular accumulation of PGE2 or prostacyclin, either of which can inhibit platelet aggregation.

Another data set has as its system EP4. The data set can be described thus: PGE2 binding to EP4 in membranes of MDCK cells expressing PGT. The following applies: 5 μM, 10 minutes at 37° C. In kind it is cell-based, human. How it is done: EP4 expression in MDCK cells that constitutively express PGT was tested by determining PGE2 binding to the cells. Wild type MDCK cells and MDCK cells stably expressing PGT were transiently transfected with human cDNA of EP4 (UMR cNDA Resource Center, www.cdna.org). About 30 hours after transfection, the cells were incubated in Waymouth buffer containing 0 and 20 nM of unlabeled PGE2, and either 4% vehicle (DMSO) or 5 μM T26A, for 10 minutes at 37° C. The cells were then washed with PBS buffer and lysed the cells with lysing buffer containing 10 mM TrisHCl, pH, 7.5, 5 mM EDTA, 100 nM okadaic acid, and 20 μM indomethacin. The cells were then harvested and homogenized using a Potter-Elvehiem homogenizer in an ice cold solution containing 10 mM Tris-HCl, pH. 7.4, 1 mM EDTA, 0, 1 mM phenylmethylsulfonyl fluoride, 20 μM indomethacin, then centrifuged the homogenate at 800 g for 5 minutes. The supernatant was transferred to another tube and centrifuged at 19000 rpm for 45 minutes. The supernatant was then discarded and the pellets washed with buffer A containing 20 mM HEPES-NaOH, pH. […] EP4 bound to ^3H-PGE2 were quantified as described by Negishi et al., 1987. Nonspecific binding was determined by using 1000-fold excess of unlabeled PGE2 in the incubation mixture. The specific binding was calculated by subtracting the nonspecific bind value from the total binding value (Nishigaki et al., 1996).

In data set [3] the target is T1, prostaglandin transporter (PGT) (Rattus norvegicus, UniProt Q00910).
T1 construct: GFP; expressed in transfected cells
The experiment in a line: PGE2 uptake by MDCK cells stably expressing PGT. In kind it is cell-based. How it is done: MDCK or 3T3 cells were seeded at 15-20% confluence on 24-well plates. The day on which the cells were seeded was considered day 1. PGE2 uptake experiments were conducted on day 4. All of the PGE2 uptake experiments were conducted at room temperature. On day 4, cells were washed twice with Waymouth buffer (135 mM NaCl, 13 mM H-Hepes, 13 mM Na-Hepes, 2.5 mM CaCl2, 1.2 mM MgCl2, 0.8 mM MgSO4, 5 mM KCl, and 28 mM D-glucose). Then 200 μL of Waymouth buffer containing [^3H]PGE2 was added to each well. At the designated time, the uptake of [^3H]PGE2 was stopped by aspiration of uptake buffer; this was followed by immediate washing twice with 500 μL of chilled Waymouth buffer. Cells were then lysed with 100 μL lysis buffer containing 0.25% SDS and 0.05 N NaOH. 1.5 mL of scintillation solution was added to each well, and intracellular [^3H]PGE2 was counted by MicroBeta Counter.
For preliminary screening of the compounds, 25 μL of Waymouth buffer containing small organic compounds were added to each well; this was immediately followed by the addition of 175 μL of Waymouth buffer containing [^3H]PGE2. In each well, the total volume of uptake medium was 200 μL. Organic compounds were first dissolved in DMSO and then diluted in Waymouth buffer. The percent inhibition of [^3H]PGE2 uptake by compounds was calculated as [(uptakevehicle−uptakeinhibitor)÷(uptakevehicle)]×100.
The initial velocities at various initial extracellular concentrations of PGE2 were determined from the PGE2 uptake in the first 2 minutes; these were linear over the time course of PGE2 uptake. Ki values were obtained by curve fitting the reciprocal of initial velocities of PGE2 uptake versus the reciprocal of extracellular PGE2 concentrations at various concentrations of the inhibitors. At low PGE2 concentrations, the extracellular concentrations were taken as ^3H labeled PGE2, which has a specific activity of 500 μCi/mol. At high concentrations of PGE2, a mixture of ^3H labeled and unlabeled PGE2 was made to a final specific activity of 25 μCi/mol.

Data set [4] is described as follows: Systemic BP after IV injection in anesthetized WKY and SHR rats. In kind it is in vivo. As for the experimental part:
The effect of T26 IV injections on systemic BP in anesthetized rats of a control strain (WKY) and the Spontaneously Hypertensive Rat (SHR) strain was evaluated.

Data set [5] in a line: Chronic oral tolerability: metabolic cages and post-mortem H&E histology. In kind it is in vivo, mice. The following applies: for pathological damage to the gastrointestinal tract: H&E stained tissues. How it is done: The mice described in FIGS. 17-19 were studied in metabolic cages. Six days after they adjusted to the caged condition on regular diet and water, regular drinking water, or vehicle (2% DMSO and 2% cremophor) in drinking water, or 2 mM T26A in drinking water was administered for 16 days. Their water and food intake, weight body and urine volume were recorded daily. Results are shown graphically in FIG. 20.
FIG. 21 provides results of post-mortem studies on the mice of FIGS. 17-19 administered either regular drinking water, or vehicle (2% DMSO and 2% cremophor) in drinking water, or 2 mM T26A in drinking water for 16 days. At the end of experiments, we isolated tissues from the mice and made H&E stained slides of tissues and examined the tissues microscopically.

Where [6] appears, read: 2 mM in drinking water, 16 days.

Entries after “also recorded” stand apart in the source; their conditions may differ.

Take `[N-]=[N+]=NCCOCCOCCNC(=O)c1ccc(Nc2nc(NCCOCCOCCNC(=O)c3ccccc3)nc(Nc3ccc(O)cc3)n2)cc1` [T26A]: the Condition result in data set [1] (6 mM, 3% DMSO, 3% Cremophor in water) was “Appeared normal”; in data set [1] (25 mM, 5% DMSO, 5% Cremophor in water) it was “More actively than mice #1,; also recorded: More active than mice #1, #4”; in data set [1] (250 mM in 100% DMSO) it was “Rarely moved for the first”. In data set [2] (mice), the “plasma PGE2 levels” value is “increased plasma PGE2 levels four-fold”. Also, the “urinary excretion of endogenous PGE2” value in data set [2] (mice) is recorded as “increased urinary excretion of endogenous PGE2; also recorded: increases PGE2 excretion in urine”. Further, the bleeding time entry in data set [2] (tail cut method) is given as “increases bleeding time”. The “effect on PGT-induced increase of PGE2 binding to EP4” value with EP4 is “abrogates this effect”. Moreover, the Ki in data set [3] (Example 2) came out at 300 nM; in data set [3] (Table 2) it was 380 nM. Further, the inhibition at 5 µM in data set [3] (MDCK, read-out: % Inhib. at 5 μM) is 92%. Further, the mode of inhibition entry in data set [3] (double reciprocal analysis) is “competitively inhibits”. In addition, the systemic blood pressure entry in data set [4] was “reduced the blood pressure of both rats”. The “effects on water and food intake, body weight, daily urine volume” value in data set [5] (setting [6]) is recorded as “did not have any observable effects; also recorded: does not have any apparent effects”. Moreover, the “pathological damage to the gastrointestinal tract” value is “did not cause any pathological damage” in data set [5] (setting [6]) and “does not cause any pathological damage” in data set [5] (2 mM in drinking water, 16 days, listed as T26). For the same molecule, the “toxicity on chronic oral basis” value in data set [5] (doses sufficient to raise plasma and urinary PGE2) is “non-toxic”.

The record behind these values is US9144573B2, “Prostaglandin transporter inhibitors” (Albert Einstein College of Medicine of Yeshiva University, priority 2006, dated 2015).
